Results reported in paper PMC9408991, “Antitumor Effects of a New Retinoate of the Fungal Cytotoxin Illudin M in Brain Tumor Models” (International Journal of Molecular Sciences, 2022).
Read-outs that look alike come from different tables or passages of the source.

Legend:
518A2 melanoma cells = assay: MTT cell viability assay, 518A2 melanoma; format: cell-based; conditions: Homo sapiens, read-out: Inhibitory concentration IC50
Description: (§1) 518A2 (Department of Radiotherapy, Medical University of Vienna, Vienna, Austria) melanoma, KB-V1^Vbl (ACC-149) cervix carcinoma, MCF-7^Topo (ACC-115) breast carcinoma, HT29 (ACC-299) colon carcinoma were cultivated in Dulbecco’s Modified Eagle Medium (DMEM) supplemented with 10% fetal bovine serum and 1% antibiotic-antimycotic at 37 °C, 5% CO2, and 95% humidity. To keep MCF-7^Topo and KB-V1^Vbl cells resistant, the maximum-tolerated doses of topotecan or vinblastine were added to the cell culture medium 24 h after every passage. The human HL60 leukemia cells were obtained from the German National Resource Center for Biological Material (DSMZ), Braunschweig. Neuroectodermal stem cells NE-4C (ATCC No. CRL-2925), primary mouse astrocytes, rat glioma C6 (ATCC No. CCL-107) and human glioma U87 (ATCC No. HTB-14) were used.
(§2) Non-GBM cells (5 × 10^4 cells/mL, 100 µL/well) were grown in 96-well plates for 24 h. […] After the addition of 12.5 µL of a 0.5% MTT solution in PBS, the cells were incubated for 3 h at 37 °C so that the water-soluble MTT could be converted to formazan crystals. Then, the plates were centrifuged (300× g, 5 min, 4 °C), the medium withdrawn, and the formazan dissolved in 25 µL of DMSO containing 10% sodium dodecylsulfate (SDS) and 0.6% acetic acid for at least 2 h at 37 °C. In the case of the HL60 cells, after 2 h, the precipitate of formazan crystals was redissolved in a 10% solution of SDS in DMSO containing 0.6% acetic acid.

HL60 leukemia cells = assay: MTT cell viability assay, HL60 leukemia; format: cell-based; conditions: Homo sapiens, read-out: Inhibitory concentration IC50
Description: as §1, §2

U87 glioma cells = assay: MTT cell viability assay, U87 glioma; format: cell-based; conditions: Homo sapiens, U-87 MG, read-out: Inhibitory concentration IC50
Description: as §1
[…] Afterward, 10 µL of a 5 mg/mL MTT solution in PBS was added to the cells for 3 h at 37 °C. Then, the spheres were centrifuged shortly to collect the cells on the bottom of the plate, and the medium was removed by careful pipetting for both adherently grown and floating sphere GBM cultures. Afterward, formazan was dissolved in a mixture (24:1 v:v) of isopropanol and 1 M HCl using 100 µL for adherent cells by shaking the plates for at least 20 min. The absorbance of formazan (λ = 570 nm), and background (λ = 630 nm) was measured with a microplate reader (Tecan Spark, Tecan Deutschland GmbH, Crailsheim, Germany).

MZ-54 glioblastoma cells = assay: Annexin V/PI flow cytometry; format: cell-based, human; conditions: MZ-54 cells
Description: U251 und Mz54 glioblastoma cells (6 × 10^5 cells/mL, 0.5 mL/well) were seeded in 24-well plates. The next day, the cells were treated with 1, 2 or vehicle (DMSO) for 48 h. Prior to the measurement, the cells were harvested and stained using Annexin-V-APC (BD Biosciences, Heidelberg, Germany) and propidium iodide (PI, 0.05 mg/mL, Sigma-Aldrich, Taufkirchen, Germany). Cells were analyzed with BD Accuri C6 flow-cytometer (BD Biosciences), and data processing was performed using BD Accuri C6 software (BD Biosciences).
Figure 7 (A–D). Annexin V/PI flow cytometry of MZ–54 cells upon treatment with 1 or 2, mean + SEM; Brown–Forsythe ANOVA test with Dunnett’s T3 multiple comparison test (compared with DMSO control); * < 0.05; ** < 0.01; *** < 0.001; **** < 0.0001.

[1] = tested on: NCH644^GFP+ glioma stem-like cells; assay: Ex vivo tumor growth assay on adult organotypic brain slice cultures; format: cell-based
From the text: For further investigation of drug efficacy and selectivity, an ex vivo tumor growth assay employing organotypic brain slice cultures of adult murine brains were used. For this purpose, GFP-expressing NCH644 (NCH644^GFP+) glioma stem-like cells were transplanted onto these slices, and after 1 day, the treatment was started and renewed three times per week, similar to our previous studies. These cultures are suitable ex vivo models, which simulate original brain architecture and the presence of vessels, including angiogenesis and microvascular proliferation as well as specific homing of GBM cells toward those vessels, while requiring much fewer laboratory animals when compared with common in vivo animal drug tests.
Adult organotypic brain slice culture was carried out as described previously. Briefly, the brains from adult C57BL/6 J (Envigo, Horst, The Netherlands) were dissected, and dura mater was removed after the mice were euthanized. Subsequently, mouse brains were placed in warm (35–40 °C) 2% low-melting agarose (Carl Roth, Karlsruhe, Germany) and cut on a Vibratome VT1000 (Leica, Wetzlar, Germany) in 150 µm thick sections. These sections were placed on Milli-cell culture inserts (Merck KGaA, Darmstadt, Germany) and cultured in 6-well plates using FCS-free medium consisting of DMEM/F12 supplied with 1× B27 and 1× N2 supplement and 100 U/mL penicillin and 100 µg/mL streptomycin (all from Gibco, Darmstadt, Germany). One day later, multiple spheres were placed on the mouse brain slices. Adequate spheres were prepared by seeding 275.000 NCH644^GFP+ cells in a total volume of 5 mL in a T25 flask. One day after sphere transplantation, pictures were taken (day 0), and the treatment was started, which was refreshed 3 times per week. Tumor growth was evaluated using FIJI, after which pictures were taken regularly with a Nikon SMZ25 stereomicroscope equipped with a P2-SHR Plan Apo 2 × objective operated by NIS elements software. As the tumor size was normalized to the size on day 0, growth curves were created.

[2] = 5 µM, treatment renewed three times per week

| Compound | IC50 (518A2 melanoma cells; 518A2, 24 h exposure) [µM] | IC50 (518A2 melanoma cells; 518A2, 48 h exposure) [µM] | IC50 (HL60 leukemia cells; HL-60, HL60, 24 h exposure) [µM] | IC50 (HL60 leukemia cells; HL-60, HL60, 48 h exposure) [µM] | IC50 (U87 glioma cells; U87, 24 h exposure) [µM] | IC50 (U87 glioma cells; U87, 48 h exposure) [µM] | cell death (Annexin V/PI) (MZ-54 glioblastoma cells) | antitumor activity (tumor growth normalized to day 0) [1, 2] | antitumor activity (tumor growth normalized to day 0) ([1]; 0.1 and 0.5 µM) | toxicity in the tumor-free regions of the brain slices ([1]; organotypic brain slices) |
| --- | --- | --- | --- | --- | --- | --- | --- | --- | --- | --- |
| CC1=C2C(=CC(C)(C)[C@@H]2O)C(=O)[C@](C)(O)C12CC2 [Compound 1, illudin M] | 0.04 ± 0.01 | 0.02 ± 0.01 | 0.007 ± 0.002 | 0.001 | 0.63 ± 0.04 | 0.13 ± 0.03 | dose- and time-dependent increase in cell death | showed antitumor activity |  |  |
| CC1=C(/C=C/C(C)=C/C=C/C(C)=C/C(=O)O[C@@H]2C3=C(C)C4(CC4)[C@@](C)(O)C(=O)C3=CC2(C)C)C(C)(C)CCC1 [Compound 2, illudin M retinoate] | 5 ± 0.3 | 4 ± 0.7 | 6.8 ± 2.8 | 4.5 ± 1.1 | 37 ± 3 | 2.7 ± 0.7 | dose- and time-dependent increase in cell death | showed antitumor activity | significantly reduced | no signs of toxicity |
